What is called EC50 is the midpoint of the concentration-response curve. A higher EC50 goes with weaker potency.

The values below come from US10961215B2, “N-aryl and N-heteroaryl piperidine derivatives as liver X receptor beta agonists, compositions, and their use” (Merck Sharp & Dohme Corp., priority 2016, dated 2021).

The target of assay [1] is T1, GST tagged LXRbeta LBD (ligand binding domain) (Homo sapiens, UniProt P55055).
T1 construct: purchased Invitrogen pv4658.pps
T1 sequence (P55055 222-460 limits assumed): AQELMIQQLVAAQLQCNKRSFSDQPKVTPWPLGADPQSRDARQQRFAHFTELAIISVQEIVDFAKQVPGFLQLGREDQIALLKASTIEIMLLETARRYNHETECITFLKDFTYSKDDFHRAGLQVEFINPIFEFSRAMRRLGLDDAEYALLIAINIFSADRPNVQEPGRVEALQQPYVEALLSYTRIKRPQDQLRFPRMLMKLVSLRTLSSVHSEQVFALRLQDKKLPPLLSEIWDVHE
Description: LanthaScreen TR-FRET Liver X Receptor Coactivator Assay, LXR beta-LBD (co-activator recruitment; IP and % Emax relative to T0901317). Conditions: for EC50: Inflection Point of co-activator recruitment, LXR beta-LBD, TR-FRET; for Emax: read-out: LXR beta actiivty at max dose (%). The assay is classed as biochemical. A digest of the protocol:
(§1)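 Coactivator recruitment is scored against T0901317 as reference dual agonist, giving inflection-point potency and Emax. Compounds met the GST-LBD protein first, then a mix of terbium anti-GST antibody and fluorescein coactivator peptide. TR-FRET was measured after incubation at room temperature.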
Background: TR-FRET usually uses a lanthanide donor and a delayed reading to cut background.

Assay [2] has as its target T2, GST tagged LXRalpha LBD (ligand binding domain) (Homo sapiens, UniProt Q13133).
T2 construct: purchased Invitrogen pv4655
T2 sequence (Q13133 209-447 limits assumed): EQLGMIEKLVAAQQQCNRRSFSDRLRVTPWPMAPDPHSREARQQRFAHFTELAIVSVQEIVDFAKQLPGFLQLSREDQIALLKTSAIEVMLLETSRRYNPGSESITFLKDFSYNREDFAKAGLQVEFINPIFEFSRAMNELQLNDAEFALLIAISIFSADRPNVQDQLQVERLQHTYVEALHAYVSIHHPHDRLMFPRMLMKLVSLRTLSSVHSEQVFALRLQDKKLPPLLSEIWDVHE
Description: LanthaScreen TR-FRET Liver X Receptor Coactivator Assay, LXR alpha-LBD (co-activator recruitment; IP and % Emax relative to T0901317). Conditions: for LXR alpha IP (nM) / EC50: Inflection Point of co-activator recruitment, LXR alpha-LBD, TR-FRET; for Emax / LXR alpha actiivty at max dose (%): efficacy at max dose in relation to reference T0901317, LXR alpha-LBD; for Emax: read-out: LXR alpha actiivty at max dose (%). The assay is classed as biochemical. A digest of the protocol: as §1

Setting [3] is: efficacy at max dose in relation to reference T0901317, LXR beta-LBD.

`COc1cccc([C@@](O)(C(=O)NC[C@@H]2C[C@@H]2C2CCN(c3ccc(C(=O)N(C)C)c(Cl)n3)CC2)C(F)(F)F)c1` [Example 15-10, 2-chloro-N,N-dimethyl-6-(4-((1R,2R)-2-(((R)-3,3,3-trifluoro-2-hydroxy-2-(3-methoxyphenyl)propanamido)methyl)cyclopropyl)piperidin-1-yl)nicotinamide] had an EC50 in assay [1] of 442 nM. In assay [1] (setting [3]), the Emax was determined as 38%. In addition, in assay [2], the “LXR alpha IP (nM)” value is reported as “No IP” and the Emax is 4%.

For the compound `CNC(=O)c1ccc(N2CCC([C@H]3C[C@H]3CNC(=O)[C@](O)(c3cccc(OC)c3)C(F)(F)F)CC2)nc1Cl` [Example 15-11, 2-chloro-N-methyl-6-(4-((1R,2R)-2-(((R)-3,3,3-trifluoro-2-hydroxy-2-(3-methoxyphenyl)propanamido)methyl)cyclopropyl)piperidin-1-yl)nicotinamide], the concentration giving a half-maximal response (EC50) in assay [1] worked out at 4440 nM. In addition, the Emax in assay [1] (setting [3]) amounted to 36%. For the same compound, in assay [2], the “LXR alpha IP (nM)” value is listed as “No IP” and the Emax turned out to be 1%.

As to `CNC(=O)c1ccc(N2CCC([C@H]3C[C@H]3CNC(=O)[C@](O)(c3ccccc3)C(F)(F)F)CC2)nc1Cl` [Example 15-12, 2-chloro-N-methyl-6-(4-((1R,2R)-2-(((R)-3,3,3-trifluoro-2-hydroxy-2-phenylpropanamido)methyl)cyclopropyl)piperidin-1-yl)nicotinamide], the concentration for a half-maximal effect (EC50) was determined as 1330 nM in assay [1] and 3780 nM in assay [2]. For the same compound, the Emax in assay [1] (setting [3]) is 39%; in assay [2], 29%.

Consider `CN(C)C(=O)c1ccc(N2CCC([C@@H]3C[C@H]3CNC(=O)[C@@](O)(c3ccccc3)C(F)(F)F)CC2)nc1Cl` [Example 15-13, 2-chloro-N,N-dimethyl-6-(4-((1S,2R)-2-(((S)-3,3,3-trifluoro-2-hydroxy-2-phenylpropanamido)methyl)cyclopropyl)piperidin-1-yl)nicotinamide], for which the EC50 in assay [1] was determined as 542 nM. Besides, the Emax in assay [1] (setting [3]) was 84%; in assay [2], 17%. Also, in assay [2], the “LXR alpha IP (nM)” value is “No IP”.

In assay [1], `CN(C)C(=O)c1ccc(N2CCC([C@@H]3C[C@H]3CNC(=O)[C@](O)(c3ccccc3)C(F)(F)F)CC2)nc1Cl` [Example 15-14, 2-chloro-N,N-dimethyl-6-(4-((1S,2R)-2-(((R)-3,3,3-trifluoro-2-hydroxy-2-phenylpropanamido)methyl)cyclopropyl)piperidin-1-yl)nicotinamide] displayed an EC50 of 264 nM. Also, the Emax came out at 69% in assay [1] (setting [3]) and 3% in assay [2]. Also, the “LXR alpha IP (nM)” value in assay [2] is given as “No IP”.

As to `CN(C)C(=O)c1ccc(N2CCC([C@@H]3C[C@H]3CN(C)C(=O)[C@](O)(c3ccccc3)C(F)(F)F)CC2)nc1Cl` [Example 15-15], the results for the EC50 in assay [1] and in assay [2] were 186 nM and 6070 nM, respectively. Besides, the results for the Emax in assay [1] (setting [3]) and in assay [2] were 75% and 23%, respectively.

Take `CN(C)C(=O)c1ccc(N2CCC([C@@H]3C[C@H]3CN(C)C(=O)[C@@](O)(c3ccccc3)C(F)(F)F)CC2)nc1Cl` [Example 15-16, 2-chloro-N,N-dimethyl-6-(4-((1S,2R)-2-(((S)-3,3,3-trifluoro-2-hydroxy-N-methyl-2-phenylpropanamido)methyl)cyclopropyl)piperidin-1-yl)nicotinamide]: the midpoint of the response in assay [1], the EC50, lay at 583 nM. For the same compound, the Emax in assay [1] (setting [3]) came to 58%. Besides, in assay [2], the “LXR alpha IP (nM)” value was “No IP” and the Emax was determined as 0%.

Compound `CN(C)C(=O)c1ccc(N2CCC([C@@H]3C[C@H]3CNC(=O)[C@@](O)(c3ccccc3)C(F)(F)F)CC2)cc1Cl` [Example 15-17, 2-chloro-N,N-dimethyl-4-(4-((1S,2R)-2-(((S)-3,3,3-trifluoro-2-hydroxy-2-phenylpropanamido)methyl)cyclopropyl)piperidin-1-yl)benzamide] gave a concentration giving a half-maximal response (EC50) in assay [1] of 505 nM. The Emax in assay [1] (setting [3]) came out at 79%. In assay [2], the “LXR alpha IP (nM)” value is reported as “No IP” and the “LXR alpha actiivty at max dose (%)” value is 0%.

Take `CN(C)C(=O)c1ccc(N2CCC([C@@H]3C[C@H]3CNC(=O)[C@@](O)(c3ccccc3)C(F)(F)F)CC2)cc1Cl` [Example 15-18, 2-chloro-N,N-dimethyl-4-(4-((1S,2R)-2-(((S)-3,3,3-trifluoro-2-hydroxy-2-phenylpropanamido)methyl)cyclopropyl)piperidin-1-yl)benzamide]: the concentration giving a half-maximal response (EC50) in assay [1] is 763 nM. In assay [1] (setting [3]), the “LXR beta actiivty at max dose (%)” value was 66%. In addition, in assay [2], the “LXR alpha IP (nM)” value is “No IP” and the “LXR alpha actiivty at max dose (%)” value amounted to 8%.

In assay [1], `CN(C)C(=O)c1ccc(N2CCC([C@@H]3C[C@H]3CN(C)C(=O)[C@](O)(c3ccccc3)C(F)(F)F)CC2)cc1Cl` [Example 15-19, 2-chloro-N,N-dimethyl-4-(4-((1S,2R)-2-(((R)-3,3,3-trifluoro-2-hydroxy-N-methyl-2-phenylpropanamido)methyl)cyclopropyl)piperidin-1-yl)benzamide] showed a concentration giving a half-maximal response (EC50) of 127 nM. In addition, the values for the Emax in assay [1] (setting [3]) and in assay [2] were 72% and 0%, respectively. Further, the “LXR alpha IP (nM)” value in assay [2] is “No IP”.

In turn, `CN(C)C(=O)c1ccc(N2CCC([C@@H]3C[C@H]3CN(C)C(=O)[C@@](O)(c3ccccc3)C(F)(F)F)CC2)cc1Cl` [Example 15-20, 2-chloro-N,N-dimethyl-4-(4-((1S,2R)-2-(((S)-3,3,3-trifluoro-2-hydroxy-N-methyl-2-phenylpropanamido)methyl)cyclopropyl)piperidin-1-yl)benzamide] registered an EC50 in assay [1] of 403 nM. The Emax in assay [1] (setting [3]) was found to be 65%. In assay [2], the “LXR alpha IP (nM)” value was “No IP” and the Emax was determined as 12%.

With `COc1cccc([C@@](O)(C(=O)N(C)CC2CC(C3CCN(c4ccc(C(=O)N(C)C)c(Cl)n4)CC3)C2)C(F)(F)F)c1` (stereo partly drawn) [Example 16-1, (R)-2-chloro-N,N-dimethyl-6-(4-(3-((3,3,3-trifluoro-2-hydroxy-2-(3-methoxyphenyl)-N-methylpropanamido)methyl)cyclobutyl)piperidin-1-yl)nicotinamide], the EC50 in assay [1] was found to be 47 nM; in assay [2] it was 1400 nM. Further, the Emax in assay [1] (setting [3]) worked out at 64%; in assay [2], 36%.

For `CN(C)C(=O)c1ccc(N2CCC([C@H]3C[C@H](N(C)C(=O)[C@](O)(c4cccc(C5CC5)c4)C(F)(F)F)C3)CC2)nc1Cl` [Example 17-1, 2-chloro-6-(4-((1R,3r)-3-((R)-2-(3-cyclopropylphenyl)-3,3,3-trifluoro-2-hydroxy-N-methylpropanamido)cyclobutyl)piperidin-1-yl)-N,N-dimethylnicotinamide], a half-maximal effect in assay [1] (EC50) was put at 18 nM. Further, the Emax came to 76% in assay [1] (setting [3]) and 14% in assay [2]. The “LXR alpha IP (nM)” value in assay [2] is on record as “No IP”.

For `CN(C)C(=O)c1ccc(N2CCC([C@H]3C[C@@H](N(C)C(=O)[C@](O)(c4cccc(C5CC5)c4)C(F)(F)F)C3)CC2)nc1Cl` [Example 17-2, cis-2-chloro-6-(4-(-3-((R)-2-(3-cyclopropylphenyl)-3,3,3-trifluoro-2-hydroxy-N-methylpropanamido)cyclobutyl)piperidin-1-yl)-N,N-dimethylnicotinamide], in assay [1], the EC50 turned out to be 33 nM. Further, in assay [1] (setting [3]), the Emax was 43%. In addition, in assay [2], the “LXR alpha IP (nM)” value is listed as “No IP” and the Emax was 10%.
